From patent US7365174B2, “Azalide and azalactam derivatives and method for producing the same” (Meiji Seika Kaisha, Ltd., priority 2003, dated 2008) come the findings set out here.

Converted amounts (≈) assume the structure as drawn. Where two headings read alike, the source gives them in different places. Bounds are passed on as bounds.

Assay in all cases: Antibacterial activity test (agar dilution MIC)
Holding throughout (format): cell-based

The test system of test [1] is Moraxella catarrhalis W-0506. As to conditions: read-out: Minimum inhibitory concentration (MIC). Here is the method: (§1) In vitro antibacterial activities of the compounds of Examples 13, 28, 35, 43, 53 to 55, 64, 70, 84, 90, 94, 95, 108, 128, and 129 were measured as follows by referring to the standard method of the Japanese Society of Chemotherapy (Chemotherapy, Vol. 29, pp. 76-79, 1981). The antibacterial activity of midecamycin (MDM) was similarly measured for comparison.
(§2) Using each solution of the test substance prepared in methanol at a concentration of […], 2-fold serial dilutions were prepared by using methanol. Each of the prepared solutions of the test substances was put into a petri dish in a volume of 200 μl, added with 10 ml of agar medium for sensitivity measurement added with 5% horse sterile defibrinated blood, 15 μg/ml of β-nicotinamide-adenine dinucleotide, and 2.5 μg/ml of Hemin, and mixed for dilution to prepare an agar plate containing a test substance. A predetermined volume of a liquid medium for sensitivity measurement, prepared so as to contain a given number of test bactera, was inoculated on the agar plate containing a test substance by using a micro planter (Sakuma Seisakusho), and after the inoculation, the bacteria were cultured at 37° C. for about 20 hours. After the culture, presence or absence of growth of the test bacteria on the plate was observed by visual inspection, and the minimum concentration at which growth was not observed was determined as the minimum inhibitory concentration (MIC) of the test sustance.

Test [2] has as its system Streptococcus pneumoniae DP1 TypeI. The settings on record: DP1TYPEI, read-out: Minimum inhibitory concentration (MIC). Here is the method:
as §1, §2

The test system of test [3] is Streptococcus pneumoniae TH-662. As to conditions: read-out: Minimum inhibitory concentration (MIC). Here is the method:
as §1, §2

For test [4], the system named is Streptococcus pneumoniae IP692. As to conditions: read-out: Minimum inhibitory concentration (MIC). Here is the method: as §1, §2
The subject of test [5] is Streptococcus pyogenes Cook. As to conditions: read-out: Minimum inhibitory concentration (MIC). Here is the method: as §1, §2
Test [6] has as its system Staphylococcus aureus 209P JC-1. The settings on record: read-out: Minimum inhibitory concentration (MIC). Here is the method: as §1, §2
Test [7] has as its system Haemophilus influenzae 9334. The settings on record: read-out: Minimum inhibitory concentration (MIC). Here is the method:
as §1, §2

[8] abbreviates: W0506, test bacterium F = Moraxella catarrhalis W-0506, blood agar medium, 37° C., about 20 hours.
Where [9] appears, read: test bacterium B = Streptococcus pneumoniae DP1 TypeI, blood agar medium, 37° C., about 20 hours.
The mark [10] stands for this setting: TH662, test bacterium D = Streptococcus pneumoniae TH-662, blood agar medium, 37° C., about 20 hours.
[11] abbreviates: test bacterium C = Streptococcus pneumoniae IP692, blood agar medium, 37° C., about 20 hours.
Where [12] appears, read: test bacterium E = Streptococcus pyogenes Cook, blood agar medium, 37° C., about 20 hours.
The mark [13] stands for this setting: test bacterium A = Staphylococcus aureus 209P JC-1, blood agar medium, 37° C., about 20 hours.
The mark [14] stands for this setting: test bacterium G = Haemophilus influenzae 9334, blood agar medium, 37° C., about 20 hours.

`CCC(=O)O[C@@H]1CC(=O)NCCCCN(CCCCc2ccccc2)C[C@H](O)[C@H](C)C[C@H](CC=O)[C@H](O[C@@H]2OC(C)[C@@H](O[C@H]3CC(C)(OC(C)=O)[C@@H](OC(=O)CC)C(C)O3)C(N(C)C)C2O)[C@H]1OC` (stereo partly drawn) [Example 64]: the MIC in test [1] (setting [8]) was found to be 0.25 µg/mL (≈ 0.256 µM); in test [2] (setting [9]), 0.13 µg/mL (≈ 0.133 µM); in test [3] (setting [10]) it was 8 µg/mL (≈ 8.18 µM); in test [4] (setting [11]), 0.25 µg/mL (≈ 0.256 µM); in test [5] (setting [12]), 0.06 µg/mL (≈ 0.0613 µM); in test [6] (setting [13]), 0.25 µg/mL (≈ 0.256 µM). In addition, in test [7] (setting [14]), the MIC was 1 µg/mL (≈ 1.02 µM).
With `CCC(=O)O[C@@H]1CC(=O)O[C@@H](C/C=C/c2ccc3ccccc3c2)CCCN(C)C[C@H](O)[C@H](C)C[C@H](CC=O)[C@H](O[C@@H]2OC(C)[C@@H](O[C@H]3CC(C)(O)[C@@H](OC(=O)CC)C(C)O3)C(N(C)C)C2O)[C@H]1OC` (stereo partly drawn) [Example 84], the MIC in test [1] (setting [8]) amounted to 2 µg/mL (≈ 2.03 µM); in test [2] (setting [9]), 0.06 µg/mL (≈ 0.0609 µM); in test [3] (setting [10]), 8 µg/mL (≈ 8.12 µM); in test [4] (setting [11]), 0.06 µg/mL (≈ 0.0609 µM); in test [5] (setting [12]) it was 0.25 µg/mL (≈ 0.254 µM); in test [6] (setting [13]), 0.5 µg/mL (≈ 0.507 µM). Also, the MIC in test [7] (setting [14]) came out at 8 µg/mL (≈ 8.12 µM).
For the compound `CCC(=O)O[C@@H]1CC(=O)O[C@@H](C/C=C/c2cnc3ccccc3c2)CCCN(C)C[C@H](O)[C@H](C)C[C@H](CC=O)[C@H](O[C@@H]2OC(C)[C@@H](O[C@H]3CC(C)(OC(C)=O)[C@@H](OC(=O)CC)C(C)O3)C(N(C)C)C2O)[C@H]1OC` (stereo partly drawn) [Example 90], the MIC in test [1] (setting [8]) was 1 µg/mL (≈ 0.973 µM); in test [2] (setting [9]), 0.015 µg/mL (≈ 0.0146 µM); in test [3] (setting [10]), 0.25 µg/mL (≈ 0.243 µM); in test [4] (setting [11]) it was 0.03 µg/mL (≈ 0.0292 µM); in test [5] (setting [12]) it was 0.03 µg/mL (≈ 0.0292 µM); in test [6] (setting [13]), 0.25 µg/mL (≈ 0.243 µM). Besides, the MIC in test [7] (setting [14]) was found to be 4 µg/mL (≈ 3.89 µM).
As for `CCC(=O)O[C@@H]1CC(=O)O[C@@H](C/C=C/c2cnc3ncccc3c2)CCCN(C)C[C@H](O)[C@H](C)C[C@H](CC=O)[C@H](O[C@@H]2OC(C)[C@@H](O[C@H]3CC(C)(OC(C)=O)[C@@H](OC(=O)CC)C(C)O3)C(N(C)C)C2O)[C@H]1OC` (stereo partly drawn) [Example 94], the MIC came out at 1 µg/mL (≈ 0.972 µM) in test [1] (setting [8]); 0.015 µg/mL (≈ 0.0146 µM) in test [2] (setting [9]); 0.5 µg/mL (≈ 0.486 µM) in test [3] (setting [10]); 0.03 µg/mL (≈ 0.0291 µM) in test [4] (setting [11]); 0.06 µg/mL (≈ 0.0583 µM) in test [5] (setting [12]); 0.5 µg/mL (≈ 0.486 µM) in test [6] (setting [13]). Also, the MIC in test [7] (setting [14]) came out at 4 µg/mL (≈ 3.89 µM).
Take `CCC(=O)O[C@@H]1CC(=O)O[C@@H](C/C=C/c2ccc3ccccc3c2)CCCN(C)C[C@H](O)[C@H](C)C[C@H](CC=O)[C@H](O[C@@H]2OC(C)[C@@H](O[C@H]3CC(C)(OC(C)=O)[C@@H](OC(=O)CC)C(C)O3)C(N(C)C)C2O)[C@H]1OC` (stereo partly drawn) [Example 95]: the MIC worked out at 4 µg/mL (≈ 3.89 µM) in test [1] (setting [8]); 0.06 µg/mL (≈ 0.0584 µM) in test [2] (setting [9]); 1 µg/mL (≈ 0.973 µM) in test [3] (setting [10]); 0.13 µg/mL (≈ 0.127 µM) in test [4] (setting [11]); 0.25 µg/mL (≈ 0.243 µM) in test [5] (setting [12]); 1 µg/mL (≈ 0.973 µM) in test [6] (setting [13]). Besides, the MIC in test [7] (setting [14]) came out at 32 µg/mL (≈ 31.2 µM).
`CCC(=O)O[C@@H]1CC(=O)O[C@@H](C/C=C/c2cccc(-c3cccnc3)c2)CCCN(C)C[C@H](O)[C@H](C)C[C@H](CC=O)[C@H](O[C@@H]2OC(C)[C@@H](O[C@H]3CC(C)(OC(C)=O)[C@@H](OC(=O)CC)C(C)O3)C(N(C)C)C2O)[C@H]1OC` (stereo partly drawn) [Example 108]: the MIC stood at 2 µg/mL (≈ 1.9 µM) in test [1] (setting [8]); 0.03 µg/mL (≈ 0.0285 µM) in test [2] (setting [9]); 0.5 µg/mL (≈ 0.474 µM) in test [3] (setting [10]); 0.06 µg/mL (≈ 0.0569 µM) in test [4] (setting [11]); 0.13 µg/mL (≈ 0.123 µM) in test [5] (setting [12]); 0.5 µg/mL (≈ 0.474 µM) in test [6] (setting [13]). For the same compound, the MIC in test [7] (setting [14]) stood at 8 µg/mL (≈ 7.59 µM).
For `CCCC(=O)O[C@H]1C(C)O[C@@H](O[C@@H]2C(C)O[C@@H](O[C@H]3[C@@H](CC=O)C[C@@H](C)[C@@H](O)CN(C)CCC[C@H](C/C=C/c4cnc5ccccc5c4)OC(=O)C[C@@H](O)[C@@H]3OC)C(O)C2N(C)C)CC1(C)OC(=O)CC` (stereo partly drawn) [Example 128], the MIC amounted to 1 µg/mL (≈ 1 µM) in test [1] (setting [8]); 0.03 µg/mL (≈ 0.03 µM) in test [2] (setting [9]); 0.13 µg/mL (≈ 0.13 µM) in test [3] (setting [10]); 0.03 µg/mL (≈ 0.03 µM) in test [4] (setting [11]); 0.06 µg/mL (≈ 0.06 µM) in test [5] (setting [12]); 0.5 µg/mL (≈ 0.5 µM) in test [6] (setting [13]). Besides, in test [7] (setting [14]), the MIC worked out at 16 µg/mL (≈ 16 µM).
On to `CCCC(=O)O[C@H]1C(C)O[C@@H](O[C@@H]2C(C)O[C@@H](O[C@H]3[C@@H](CC=O)C[C@@H](C)[C@@H](O)CN(C)CCC[C@H](C/C=C/c4cncc5ccccc45)OC(=O)C[C@@H](O)[C@@H]3OC)C(O)C2N(C)C)CC1(C)OC(=O)CC` (stereo partly drawn) [Example 129], for which the MIC in test [1] (setting [8]) is 1 µg/mL (≈ 1 µM); in test [2] (setting [9]), 0.015 µg/mL (≈ 0.015 µM); in test [3] (setting [10]), 0.13 µg/mL (≈ 0.13 µM); in test [4] (setting [11]) it was 0.03 µg/mL (≈ 0.03 µM); in test [5] (setting [12]) it was 0.06 µg/mL (≈ 0.06 µM); in test [6] (setting [13]), 0.5 µg/mL (≈ 0.5 µM). Also, the MIC in test [7] (setting [14]) turned out to be 8 µg/mL (≈ 8 µM).
Consider `CCC(=O)O[C@@H]1CC(=O)O[C@H](C)C/C=C/C=C/[C@H](O)[C@H](C)C[C@H](CC=O)[C@H](O[C@@H]2O[C@H](C)[C@@H](O[C@H]3C[C@@](C)(O)[C@@H](OC(=O)CC)[C@H](C)O3)[C@H](N(C)C)[C@H]2O)[C@H]1OC` [MDM, midecamycin, reference compound], for which the MIC in test [1] (Moraxella catarrhalis, W0506, 20 h) is 2 µg/mL (≈ 2.46 µM); in test [2] (Streptococcus pneumoniae, 20 h) it was 0.25 µg/mL (≈ 0.307 µM); in test [3] (Streptococcus pneumoniae, TH662, 20 h) it was over 128 µg/mL; in test [4] (Streptococcus pneumoniae, IP692, 20 h) it was 0.5 µg/mL (≈ 0.614 µM); in test [5] (Streptococcus pyogenes, 20 h), 0.25 µg/mL (≈ 0.307 µM); in test [6] (Staphylococcus aureus, 209P, 20 h), 0.5 µg/mL (≈ 0.614 µM). Moreover, in test [7] (Haemophilus influenzae, 9334, 20 h), the MIC is 2 µg/mL (≈ 2.46 µM).
